From patent US20250213550A1, “COMPOUNDS AND METHODS FOR TREATING INFLAMMATORY BOWEL DISEASE” (Gilead Sciences, Inc., priority 2023, published 2025)
Where two headings read alike, the source gives them in different places.

Tested on: LPS-stimulated pERK in monocytes (TPL2 pathway)
Test: Ex vivo LPS-stimulated pERK in monocytes of whole blood after Compound 1 dosing (flow cytometry)
Parameters: species or system human
Settings: for inhibition at 300 mg / inhibition at 600 mg / inhibition at 900 mg / inhibition at 75 mg: Homo sapiens, Monocyte; for inhibition at 75 mg: 75 mg QD multiple dose
Description: For Cohorts 1-4, whole blood PD sampling occurred relative to the dose of Compound 1 at the following time points: • Day 1: 0 pre-dose (≤5 min prior to dosing), 1, 2, 3, 4, 8, 12, 24 and 36 hours post-dose
For Cohorts 5-9, whole blood PD sampling occurred relative to the dose of Compound 1 at the following time points: • Day 1: 0 pre-dose (≤5 min prior to dosing), 1, 2, 3, 4, 8, 12, and 24 hours post-dose • Day 10: 0 pre-dose (≤5 min prior to dosing), 1, 2, 3, 4, 8, 12, 24, 36, 48, 72, 96, and 120 hours post-dose
Whole blood PD Samples were stimulated ex vivo with lipopolysaccharide (LPS) or phosphate buffered saline (PBS), and the phosphorylation of extracellular signal-related kinase (pERK) was detected in monocytes by flow cytometry.
Pharmacodynamic changes after single and multiple doses of Compound 1 were also investigated by monitoring, in whole blood samples, stimulated with either lipopolysaccharide (LPS) or PBS for 15 minutes at 37° C. Changes to the phosphorylation of extracellular signal-regulated kinases (pERK) was measured in monocytes by flow cytometry, defined as CD15−CD14+.
Pharmacodynamic parameters for Compound 1 were calculated as percent change in pERK signal relative to Day 1 pre-dose (baseline) for all evaluable participants.
Multiple Ascending Doses: Pharmacodynamic parameters after multiple doses of Compound 1 were also calculated as percent change in pERK signal relative to Day 1 pre-dose (baseline) for all evaluable participants.

SMILES: Cn1ccc2c([C@@H](c3cn(C45CC(C4)C5)nn3)N(C(=O)OCOP(=O)(O)O)c3cc(Cl)c4ncc(C#N)c(NCC(C)(C)C)c4c3)cccc2c1=O [Compound 1]
- inhibition at 300 mg (300 mg QD multiple dose, Day 1 1 hour, mean (SD), read-out: pERK Signal, % Inhibition): 89.1%
- inhibition at 300 mg (300 mg QD multiple dose, Day 1 1 hour, median, read-out: pERK Signal, % Inhibition): 93.8%
- inhibition at 300 mg (300 mg QD multiple dose, Day 1 3 hours, mean (SD), read-out: pERK Signal, % Inhibition): 95.7%
- inhibition at 300 mg (300 mg QD multiple dose, Day 1 3 hours, median, read-out: pERK Signal, % Inhibition): 97.1%
- inhibition at 300 mg (300 mg QD multiple dose, Day 1 12 hours, mean (SD), read-out: pERK Signal, % Inhibition): 75.3%
- inhibition at 300 mg (300 mg QD multiple dose, Day 1 12 hours, median, read-out: pERK Signal, % Inhibition): 74.3%
- inhibition at 300 mg (300 mg QD multiple dose, Day 10 1 hour, mean (SD), read-out: pERK Signal, % Inhibition): 96.8%
- inhibition at 300 mg (300 mg QD multiple dose, Day 10 1 hour, median, read-out: pERK Signal, % Inhibition): 97.1%
- inhibition at 300 mg (300 mg QD multiple dose, Day 10 3 hours, mean (SD), read-out: pERK Signal, % Inhibition): 98.3%
- inhibition at 300 mg (300 mg QD multiple dose, Day 10 3 hours, median, read-out: pERK Signal, % Inhibition): 98.7%
- inhibition at 300 mg (300 mg QD multiple dose, Day 10 12 hours, mean (SD), read-out: pERK Signal, % Inhibition): 94%
- inhibition at 300 mg (300 mg QD multiple dose, Day 10 12 hours, median, read-out: pERK Signal, % Inhibition): 95.7%
- inhibition at 300 mg (300 mg QD multiple dose, Day 10 24 hours, mean (SD), read-out: pERK Signal, % Inhibition): 92.2%
- inhibition at 300 mg (300 mg QD multiple dose, Day 10 24 hours, median, read-out: pERK Signal, % Inhibition): 91.6%
- inhibition at 600 mg (600 mg BID multiple dose, Day 1 1 hour, mean (SD), read-out: pERK Signal, % Inhibition): 79.9%
- inhibition at 600 mg (600 mg BID multiple dose, Day 1 1 hour, median, read-out: pERK Signal, % Inhibition): 74.3%
- inhibition at 600 mg (600 mg BID multiple dose, Day 1 3 hours, mean (SD), read-out: pERK Signal, % Inhibition): 99.9%
- inhibition at 600 mg (600 mg BID multiple dose, Day 1 3 hours, median, read-out: pERK Signal, % Inhibition): 99.9%
- inhibition at 600 mg (600 mg BID multiple dose, Day 1 12 hours, mean (SD), read-out: pERK Signal, % Inhibition): 84.2%
- inhibition at 600 mg (600 mg BID multiple dose, Day 1 12 hours, median, read-out: pERK Signal, % Inhibition): 91%
- inhibition at 600 mg (600 mg BID multiple dose, Day 10 1 hour, mean (SD), read-out: pERK Signal, % Inhibition): 99.5%
- inhibition at 600 mg (600 mg BID multiple dose, Day 10 1 hour, median, read-out: pERK Signal, % Inhibition): 100%
- inhibition at 600 mg (600 mg BID multiple dose, Day 10 3 hours, mean (SD), read-out: pERK Signal, % Inhibition): 100%
- inhibition at 600 mg (600 mg BID multiple dose, Day 10 3 hours, median, read-out: pERK Signal, % Inhibition): 100%
- inhibition at 600 mg (600 mg BID multiple dose, Day 10 12 hours, mean (SD), read-out: pERK Signal, % Inhibition): 100%
- inhibition at 600 mg (600 mg BID multiple dose, Day 10 12 hours, median, read-out: pERK Signal, % Inhibition): 100%
- inhibition at 600 mg (600 mg BID multiple dose, Day 10 24 hours, mean (SD), read-out: pERK Signal, % Inhibition): 103%
- inhibition at 600 mg (600 mg BID multiple dose, Day 10 24 hours, median, read-out: pERK Signal, % Inhibition): 102%
- inhibition at 900 mg (900 mg QD multiple dose, Day 1 1 hour, mean (SD), read-out: pERK Signal, % Inhibition): 88.9%
- inhibition at 900 mg (900 mg QD multiple dose, Day 1 1 hour, median, read-out: pERK Signal, % Inhibition): 95%
- inhibition at 900 mg (900 mg QD multiple dose, Day 1 3 hours, mean (SD), read-out: pERK Signal, % Inhibition): 99.8%
- inhibition at 900 mg (900 mg QD multiple dose, Day 1 3 hours, median, read-out: pERK Signal, % Inhibition): 99.6%
- inhibition at 900 mg (900 mg QD multiple dose, Day 1 12 hours, mean (SD), read-out: pERK Signal, % Inhibition): 95.2%
- inhibition at 900 mg (900 mg QD multiple dose, Day 1 12 hours, median, read-out: pERK Signal, % Inhibition): 95.3%
- inhibition at 900 mg (900 mg QD multiple dose, Day 10 1 hour, mean (N=1), read-out: pERK Signal, % Inhibition): 99.4%
- inhibition at 900 mg (900 mg QD multiple dose, Day 10 1 hour, median (N=1), read-out: pERK Signal, % Inhibition): 99.4%
- inhibition at 900 mg (900 mg QD multiple dose, Day 10 3 hours, mean (N=1), read-out: pERK Signal, % Inhibition): 99.6%
- inhibition at 900 mg (900 mg QD multiple dose, Day 10 3 hours, median (N=1), read-out: pERK Signal, % Inhibition): 99.6%
- inhibition at 900 mg (900 mg QD multiple dose, Day 10 12 hours, mean (N=1), read-out: pERK Signal, % Inhibition): 96.7%
- inhibition at 900 mg (900 mg QD multiple dose, Day 10 12 hours, median (N=1), read-out: pERK Signal, % Inhibition): 96.7%
- inhibition at 900 mg (900 mg QD multiple dose, Day 10 24 hours, mean (SD), read-out: pERK Signal, % Inhibition): 98.3%
- inhibition at 900 mg (900 mg QD multiple dose, Day 10 24 hours, median, read-out: pERK Signal, % Inhibition): 98.5%
- inhibition at 75 mg (24 h, Day 1 24 hours, mean (SD), read-out: pERK Signal, % Inhibition): 1%
- inhibition at 75 mg (24 h, Day 1 24 hours, median, read-out: pERK Signal, % Inhibition): 4.4%
- inhibition at 300 mg (24 h, 300 mg QD multiple dose, Day 1 24 hours, mean (SD), read-out: pERK Signal, % Inhibition): 72.9%
- inhibition at 300 mg (24 h, 300 mg QD multiple dose, Day 1 24 hours, median, read-out: pERK Signal, % Inhibition): 71.5%
- inhibition at 300 mg (24 h, 300 mg QD, steady state, 24 hours post-last dose, read-out: inhibition of LPS-stimulated pERK): > 90%
- inhibition at 600 mg (24 h, 600 mg BID multiple dose, Day 1 24 hours, mean (SD), read-out: pERK Signal, % Inhibition): 97.6%
- inhibition at 600 mg (24 h, 600 mg BID multiple dose, Day 1 24 hours, median, read-out: pERK Signal, % Inhibition): 99.5%
- inhibition at 600 mg (24 h, 600 mg BID, steady state, 24 hours post-last dose, read-out: inhibition of LPS-stimulated pERK): > 90%
- inhibition at 900 mg (24 h, 900 mg QD multiple dose, Day 1 24 hours, mean (SD), read-out: pERK Signal, % Inhibition): 90.2%
- inhibition at 900 mg (24 h, 900 mg QD multiple dose, Day 1 24 hours, median, read-out: pERK Signal, % Inhibition): 89.9%
- inhibition at 900 mg (24 h, 900 mg QD, steady state, 24 hours post-last dose, read-out: inhibition of LPS-stimulated pERK): > 90%
- inhibition at 75 mg (240 h, Day 10 predose, mean (SD), read-out: pERK Signal, % Inhibition): 24.4%
- inhibition at 75 mg (240 h, Day 10 predose, median, read-out: pERK Signal, % Inhibition): 41.3%
- inhibition at 300 mg (240 h, 300 mg QD multiple dose, Day 10 predose, mean (SD), read-out: pERK Signal, % Inhibition): 93.5%
- inhibition at 300 mg (240 h, 300 mg QD multiple dose, Day 10 predose, median, read-out: pERK Signal, % Inhibition): 93.4%
- inhibition at 600 mg (240 h, 600 mg BID multiple dose, Day 10 predose, mean (SD), read-out: pERK Signal, % Inhibition): 98.6%
- inhibition at 600 mg (240 h, 600 mg BID multiple dose, Day 10 predose, median, read-out: pERK Signal, % Inhibition): 100%
- inhibition at 900 mg (240 h, 900 mg QD multiple dose, Day 10 predose, mean (N=1), read-out: pERK Signal, % Inhibition): 97.1%
- inhibition at 900 mg (240 h, 900 mg QD multiple dose, Day 10 predose, median (N=1), read-out: pERK Signal, % Inhibition): 97.1%
- inhibition of LPS-stimulated pERK in ex vivo whole blood samples (SAD and MAD cohorts): dose-dependent and reversible inhibition
- time of peak inhibition of LPS-stimulated pERK (single oral doses, fasted, all dosages, post-dose): 3 hours
